The test system of data set [1] is P. falciparum NF54 (PfNF54) parasites. The data set can be described thus: In vitro antiplasmodial asexual blood stage activity, pLDH assay, NF54. The format is cell-based, Plasmodium falciparum. Particulars: Plasmodium falciparum.
Data set [2] has as its system P. falciparum K1 (PfK1) strain. The data set can be described thus: In vitro antiplasmodial asexual blood stage activity, pLDH assay, K1. The format is cell-based. Particulars: Plasmodium falciparum, K1, 72 h, read-out: Pf ABS IC50 K1.
For data set [3], the system named is Chinese hamster ovary cells. The data set can be described thus: Cytotoxicity, MTT assay, CHO. Particulars: Cricetulus griseus, read-out: CHO IC50. The format is cell-based.
Data set [4] relates to HepG2 cells. The data set can be described thus: Cytotoxicity, MTT assay, HepG2. The format is cell-based. Particulars: Homo sapiens, HepG2, read-out: HepG2 IC50.
Data set [5] has as its system L6 rat myoblast cell line. The data set can be described thus: Cytotoxicity, L6. Particulars: read-out: L6 IC50. The format is cell-based.
The test system of data set [6] is PfNF54. Particulars: cited from earlier work.
Data set [7] relates to P. vivax PI4Kβ (PvPI4K). Particulars: cited from earlier work.
The subject of data set [8] is Pf3D7. Particulars: read-out: Pf3D7 IC50; cited from earlier work.
The target in data set [9] is HsPI3Kα (Homo sapiens, UniProt P42336). The data set can be described thus: Human lipid kinase screening, ADP-Glo, PI3Kα. The format is biochemical. Particulars: IC50/PvPI4K IC50.
The target in data set [10] is HsPI4Kβ (Homo sapiens, UniProt Q9UBF8). As to the kind of experiment: Human lipid kinase screening, ADP-Glo, PI4Kβ. Particulars: IC50/PvPI4K IC50. The format is biochemical.
In data set [11] the target is HsMINK1 (Homo sapiens, UniProt Q8N4C8). The data set can be described thus: Human kinase screening, ADP-Glo, MINK1. The format is biochemical. Particulars: IC50/PvPI4K IC50.
The target in data set [12] is HsMAP4K4 (Homo sapiens, UniProt O95819). The data set can be described thus: Human kinase screening, ADP-Glo, MAP4K4. The format is biochemical. Particulars: IC50/PvPI4K IC50.
A short description of data set [13]: physchem. Particulars: 25 °C, pH 6.5, aqueous buffer, thermodynamic from solid.
Data set [14] concerns PfDd2. Particulars: read-out: PfDd2 IC50; reported inhibitors, Figure 1; cited from earlier work.

Converted amounts (≈) assume the structure as drawn. Like-named read-outs stand apart in the source and are kept apart here. A value given as a limit tells only on which side of the number the result lay.

Chain of HsMINK1 (Q8N4C8 whole entry): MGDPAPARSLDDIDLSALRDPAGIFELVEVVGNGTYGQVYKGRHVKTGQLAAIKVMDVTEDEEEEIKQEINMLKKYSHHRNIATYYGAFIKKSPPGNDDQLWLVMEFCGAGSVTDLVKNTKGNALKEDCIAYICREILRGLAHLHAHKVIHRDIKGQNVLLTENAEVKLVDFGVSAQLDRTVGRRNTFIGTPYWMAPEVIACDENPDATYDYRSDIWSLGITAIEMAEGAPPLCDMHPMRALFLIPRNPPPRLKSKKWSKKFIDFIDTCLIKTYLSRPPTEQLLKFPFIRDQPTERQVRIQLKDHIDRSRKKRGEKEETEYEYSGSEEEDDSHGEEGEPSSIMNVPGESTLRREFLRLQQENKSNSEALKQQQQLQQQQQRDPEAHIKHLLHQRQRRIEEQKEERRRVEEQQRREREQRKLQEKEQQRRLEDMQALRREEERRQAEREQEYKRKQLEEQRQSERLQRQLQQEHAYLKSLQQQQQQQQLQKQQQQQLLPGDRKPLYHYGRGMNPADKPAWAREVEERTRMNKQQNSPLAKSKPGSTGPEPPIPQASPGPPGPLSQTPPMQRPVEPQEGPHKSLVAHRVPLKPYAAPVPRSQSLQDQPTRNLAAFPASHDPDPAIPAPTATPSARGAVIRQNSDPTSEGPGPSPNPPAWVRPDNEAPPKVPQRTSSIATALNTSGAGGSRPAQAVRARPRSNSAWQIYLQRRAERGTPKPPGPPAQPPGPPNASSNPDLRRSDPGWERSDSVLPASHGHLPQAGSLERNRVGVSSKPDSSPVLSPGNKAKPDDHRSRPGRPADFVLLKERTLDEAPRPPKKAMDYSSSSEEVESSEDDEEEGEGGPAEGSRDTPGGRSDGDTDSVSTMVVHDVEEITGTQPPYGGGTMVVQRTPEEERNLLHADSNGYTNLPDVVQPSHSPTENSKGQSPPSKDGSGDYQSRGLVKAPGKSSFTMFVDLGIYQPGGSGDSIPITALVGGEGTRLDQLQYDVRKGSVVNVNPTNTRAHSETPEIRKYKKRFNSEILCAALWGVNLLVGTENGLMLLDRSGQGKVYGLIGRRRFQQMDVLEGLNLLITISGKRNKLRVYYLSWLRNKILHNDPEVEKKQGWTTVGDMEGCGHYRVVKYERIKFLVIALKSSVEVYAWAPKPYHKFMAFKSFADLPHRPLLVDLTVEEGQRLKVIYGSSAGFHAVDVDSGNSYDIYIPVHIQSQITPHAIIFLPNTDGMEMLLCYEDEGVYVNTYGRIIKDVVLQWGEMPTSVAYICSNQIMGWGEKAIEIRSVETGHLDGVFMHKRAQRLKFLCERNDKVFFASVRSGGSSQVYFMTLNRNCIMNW
Chain of HsMAP4K4 (O95819 whole entry): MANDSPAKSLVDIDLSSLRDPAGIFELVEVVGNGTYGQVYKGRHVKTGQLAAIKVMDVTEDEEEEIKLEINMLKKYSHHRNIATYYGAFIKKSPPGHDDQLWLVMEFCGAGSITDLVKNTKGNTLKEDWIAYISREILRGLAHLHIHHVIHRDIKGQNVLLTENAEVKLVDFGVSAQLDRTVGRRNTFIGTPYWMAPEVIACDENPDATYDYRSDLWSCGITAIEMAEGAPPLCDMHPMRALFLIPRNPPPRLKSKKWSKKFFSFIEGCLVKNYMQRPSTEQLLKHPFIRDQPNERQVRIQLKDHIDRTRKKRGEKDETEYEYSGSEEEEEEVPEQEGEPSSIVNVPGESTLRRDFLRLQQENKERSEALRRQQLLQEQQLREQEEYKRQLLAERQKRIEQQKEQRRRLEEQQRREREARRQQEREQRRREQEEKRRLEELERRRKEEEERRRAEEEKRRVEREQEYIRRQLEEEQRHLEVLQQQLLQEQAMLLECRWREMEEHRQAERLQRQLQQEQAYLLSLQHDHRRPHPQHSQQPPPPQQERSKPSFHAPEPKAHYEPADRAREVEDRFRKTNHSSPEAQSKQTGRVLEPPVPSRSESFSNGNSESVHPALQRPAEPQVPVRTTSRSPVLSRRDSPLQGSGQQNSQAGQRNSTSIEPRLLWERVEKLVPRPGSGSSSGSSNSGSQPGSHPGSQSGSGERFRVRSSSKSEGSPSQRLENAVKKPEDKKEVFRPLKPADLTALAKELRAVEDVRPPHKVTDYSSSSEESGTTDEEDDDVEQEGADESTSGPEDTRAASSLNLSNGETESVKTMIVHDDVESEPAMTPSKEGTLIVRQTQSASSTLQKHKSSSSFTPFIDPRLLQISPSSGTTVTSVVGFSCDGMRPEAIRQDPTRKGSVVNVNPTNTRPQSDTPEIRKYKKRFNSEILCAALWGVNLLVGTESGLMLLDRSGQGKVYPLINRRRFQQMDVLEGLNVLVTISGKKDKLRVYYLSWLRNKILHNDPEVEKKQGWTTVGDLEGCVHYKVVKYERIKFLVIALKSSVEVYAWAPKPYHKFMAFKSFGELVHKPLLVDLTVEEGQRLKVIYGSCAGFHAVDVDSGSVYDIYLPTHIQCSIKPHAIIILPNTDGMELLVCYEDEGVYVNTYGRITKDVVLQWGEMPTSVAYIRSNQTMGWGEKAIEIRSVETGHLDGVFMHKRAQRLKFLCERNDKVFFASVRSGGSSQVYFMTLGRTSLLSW
Chain of HsPI3Kα (P42336 whole entry): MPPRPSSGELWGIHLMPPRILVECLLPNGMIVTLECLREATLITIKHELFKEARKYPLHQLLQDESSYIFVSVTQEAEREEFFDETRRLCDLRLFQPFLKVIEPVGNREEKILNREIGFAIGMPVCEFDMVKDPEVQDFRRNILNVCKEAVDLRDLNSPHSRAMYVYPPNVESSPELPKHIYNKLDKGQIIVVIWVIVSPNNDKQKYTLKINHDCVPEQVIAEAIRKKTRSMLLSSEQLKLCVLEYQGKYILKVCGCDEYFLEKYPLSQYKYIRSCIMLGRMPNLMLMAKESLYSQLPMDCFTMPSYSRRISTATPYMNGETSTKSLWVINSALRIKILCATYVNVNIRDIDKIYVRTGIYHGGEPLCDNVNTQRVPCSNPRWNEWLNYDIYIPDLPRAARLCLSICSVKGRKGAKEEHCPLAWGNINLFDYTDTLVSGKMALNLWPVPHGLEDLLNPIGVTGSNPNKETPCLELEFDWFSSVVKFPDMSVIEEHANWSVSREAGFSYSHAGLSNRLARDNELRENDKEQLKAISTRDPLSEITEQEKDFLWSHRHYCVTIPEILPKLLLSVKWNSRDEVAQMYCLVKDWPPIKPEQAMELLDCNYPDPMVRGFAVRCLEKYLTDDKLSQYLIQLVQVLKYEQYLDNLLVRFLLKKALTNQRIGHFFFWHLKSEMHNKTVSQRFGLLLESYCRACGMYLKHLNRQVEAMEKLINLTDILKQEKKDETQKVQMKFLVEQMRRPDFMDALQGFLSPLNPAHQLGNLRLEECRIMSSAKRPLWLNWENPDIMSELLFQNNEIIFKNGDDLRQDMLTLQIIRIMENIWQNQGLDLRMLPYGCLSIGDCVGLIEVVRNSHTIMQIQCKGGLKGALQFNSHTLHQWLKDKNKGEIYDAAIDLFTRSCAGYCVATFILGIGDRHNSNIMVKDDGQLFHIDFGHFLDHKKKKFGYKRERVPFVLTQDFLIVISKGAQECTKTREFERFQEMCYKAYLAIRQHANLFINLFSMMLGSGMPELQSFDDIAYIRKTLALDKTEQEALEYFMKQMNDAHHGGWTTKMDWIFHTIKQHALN
Chain of HsPI3Kα (P27986 whole entry partner): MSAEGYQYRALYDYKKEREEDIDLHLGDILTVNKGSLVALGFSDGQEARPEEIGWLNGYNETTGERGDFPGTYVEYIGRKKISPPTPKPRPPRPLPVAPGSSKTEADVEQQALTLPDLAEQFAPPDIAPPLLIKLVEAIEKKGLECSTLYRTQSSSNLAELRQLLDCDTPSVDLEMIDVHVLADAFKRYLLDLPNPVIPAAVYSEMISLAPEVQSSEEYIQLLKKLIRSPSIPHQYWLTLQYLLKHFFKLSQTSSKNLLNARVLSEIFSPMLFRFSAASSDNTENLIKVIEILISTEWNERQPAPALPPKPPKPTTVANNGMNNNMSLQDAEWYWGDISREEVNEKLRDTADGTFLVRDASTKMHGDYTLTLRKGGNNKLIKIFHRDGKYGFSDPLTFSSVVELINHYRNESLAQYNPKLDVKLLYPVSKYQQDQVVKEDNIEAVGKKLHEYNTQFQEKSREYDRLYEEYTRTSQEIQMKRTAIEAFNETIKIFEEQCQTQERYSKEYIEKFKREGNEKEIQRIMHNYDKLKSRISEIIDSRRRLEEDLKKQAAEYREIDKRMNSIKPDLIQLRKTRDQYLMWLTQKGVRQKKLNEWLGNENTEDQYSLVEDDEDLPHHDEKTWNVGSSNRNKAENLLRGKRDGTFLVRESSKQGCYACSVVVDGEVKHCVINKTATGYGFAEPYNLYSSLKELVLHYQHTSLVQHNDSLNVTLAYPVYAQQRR

Regarding `NS(=O)(=O)c1cccc(-c2ccc3nccc(-c4ccnc(C(F)(F)F)c4)c3n2)c1` [Compound 1], the IC50 in data set [1] (NF54, 72 h, read-out: Pf ABS IC50 NF54) was 0.063 µM; in [2], 0.086 µM; in data set [3], 6 µM; in [4], 48 µM; in data set [5], 35 µM; in data set [6], 0.063 µM. Further, the figures for the IC50 in data set [7] and in data set [8] were 0.006 µM and 0.14 µM, respectively.

Turning to `CS(=O)(=O)c1cccc(-c2ccnc3ccc(N4CCCC(C(N)=O)C4)nc23)c1` (centres unmarked) [Compound 22, 1-[8-(3-Methylsulfonylphenyl)-1,5-naphthyridin-2-yl]piperidine-3-carboxamide], the IC50 was 0.067 µM in data set [1] (NF54, 72 h, pLDH assay, 72 h, read-out: Pf ABS IC50 NF54); 0.0672 µM in data set [1] (NF54, mean, supplement, read-out: PfNF54 IC50); over 50 µM in data set [3] (one biological replicate). The “HsPI3Kα SI” value in data set [9] is recorded as 60. Moreover, the “HsPI4Kβ SI” value in [10] amounted to 56. Moreover, the “HsMINK1 SI” value in data set [11] is over 4000. The “HsMAP4K4 SI” value in data set [12] was over 4000. The same compound showed a thermodynamic solubility at 20 h in [13] of 10 µM (≈ 4.1 µg/mL).

Take `COc1ccc2c3c([nH]c2c1)[C@H](CO)N(C(C)=O)CC31CCN(C(=O)Nc2ccccc2F)CC1` [BRD73842]: the IC50 in data set [14] is 0.069 µM.

The values are drawn from article PMC12557380, “Optimization of 2,8-Diaryl-1,5-naphthyridines as Plasmodium falciparum Phosphatidylinositol 4‑Kinase Inhibitors with Improved ADME Profiles and In Vivo Efficacy” (Journal of Medicinal Chemistry, 2025).
